Test: recombinant barcode read abundance after kanamycin selection (control-corrected) (log10(CPM+1)); higher = more efficient recombination; sequences stand for … in AGTGCAGAGAAAATCGGCCAGTTTTCTCTGCCTGCAGTCCGCATGCCGT…ATTTATGCAGCGGACTGCCTTTCTCCCAAAGTGATAAACCGGACAGTATCATGGACCGGTTTTCCCGGTAATCCGTATTTGCAAGGTTGGTTTCACT; site = the 11-nt target
Procedure: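 Same pooled E. coli target screen (IS621 bridge recombinase, kanamycin selection, control-corrected CPM, mean of 2 biological replicates). Here the two core-binding nucleotides of the LTG and RTG of the bridge RNA target-binding loop are mutated. Target and donor CT cores are held constant, and the other 9 guide positions match the target. The target is read from the library oligo sequence. Molecule = full bridge RNA written as DNA: nt 1-80 from the library oligo, rest WT scaffold.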

## AAACACACTTGGGTTCTAACCTGTTGCCTAA [AAACACACTAG_LTGcore_CT_RTGcore_TT] (site AAACACACTAG) (LTG core: CT, RTG core: TT)
  recombinant barcode read abundance (log10): 1.12

## AAACACACTTGGGTTCTAACCTGTTGCCTCC [AAACACACTAG_LTGcore_CT_RTGcore_GG] (site AAACACACTAG) (LTG core: CT, RTG core: GG)
  recombinant barcode read abundance (log10): 1.45

## AAACACACTTGGGTTCTAACCTGTTGCCTCG [AAACACACTAG_LTGcore_CT_RTGcore_CG] (site AAACACACTAG) (LTG core: CT, RTG core: CG)
  recombinant barcode read abundance (log10): 1.01

## AAACACACTTGGGTTCTAACCTGTTGCCTGC [AAACACACTAG_LTGcore_CT_RTGcore_GC] (site AAACACACTAG) (LTG core: CT, RTG core: GC)
  recombinant barcode read abundance (log10): 0.456

## AAACACAGCTGGGTTCTAACCTGTTGCCTGC [AAACACACTAG_LTGcore_GC_RTGcore_GC] (site AAACACACTAG) (LTG core: GC, RTG core: GC)
  recombinant barcode read abundance (log10): 0.0607

## AAACACAGTTGGGTTCTAACCTGTTGCCTAC [AAACACACTAG_LTGcore_GT_RTGcore_GT] (site AAACACACTAG) (LTG core: GT, RTG core: GT)
  recombinant barcode read abundance (log10): 0.112

## AAACACAGTTGGGTTCTAACCTGTTGCCTAG [AAACACACTAG_LTGcore_GT_RTGcore_CT] (site AAACACACTAG) (LTG core: GT, RTG core: CT)
  recombinant barcode read abundance (log10): 0.804

## AAACACATCTGGGTTCTAACCTGTTGCCTAG [AAACACACTAG_LTGcore_TC_RTGcore_CT] (site AAACACACTAG) (LTG core: TC, RTG core: CT)
  recombinant barcode read abundance (log10): 0.222

## AAACAGTATTGGGTTCTAACCTGTTGCCTAG [AAACAGTCTAG_LTGcore_AT_RTGcore_CT] (site AAACAGTCTAG) (LTG core: AT, RTG core: CT)
  recombinant barcode read abundance (log10): 0.571

## AAACAGTCCTGGGTTCTAACCTGTTGCCTAG [AAACAGTCTAG_LTGcore_CC_RTGcore_CT] (site AAACAGTCTAG) (LTG core: CC, RTG core: CT)
  recombinant barcode read abundance (log10): 0.93

## AAACAGTCGTGGGTTCTAACCTGTTGCCTAG [AAACAGTCTAG_LTGcore_CG_RTGcore_CT] (site AAACAGTCTAG) (LTG core: CG, RTG core: CT)
  recombinant barcode read abundance (log10): 1.17

## AAACAGTCTTGGGTTCTAACCTGTTGCCTAA [AAACAGTCTAG_LTGcore_CT_RTGcore_TT] (site AAACAGTCTAG) (LTG core: CT, RTG core: TT)
  recombinant barcode read abundance (log10): 1.55

## AAACAGTCTTGGGTTCTAACCTGTTGCCTCT [AAACAGTCTAG_LTGcore_CT_RTGcore_AG] (site AAACAGTCTAG) (LTG core: CT, RTG core: AG)
  recombinant barcode read abundance (log10): 1.72

## AAACAGTCTTGGGTTCTAACCTGTTGCCTTC [AAACAGTCTAG_LTGcore_CT_RTGcore_GA] (site AAACAGTCTAG) (LTG core: CT, RTG core: GA)
  recombinant barcode read abundance (log10): 1.45

## AAACAGTTATGGGTTCTAACCTGTTGCCTAG [AAACAGTCTAG_LTGcore_TA_RTGcore_CT] (site AAACAGTCTAG) (LTG core: TA, RTG core: CT)
  recombinant barcode read abundance (log10): 0.0345

## AAACAGTTATGGGTTCTAACCTGTTGCCTTA [AAACAGTCTAG_LTGcore_TA_RTGcore_TA] (site AAACAGTCTAG) (LTG core: TA, RTG core: TA)
  recombinant barcode read abundance (log10): 0.0835

## AAACATGATTGGGTTCTAACCTGTTGCCTAG [AAACATGCTAG_LTGcore_AT_RTGcore_CT] (site AAACATGCTAG) (LTG core: AT, RTG core: CT)
  recombinant barcode read abundance (log10): 0.372

## AAACATGCCTGGGTTCTAACCTGTTGCCTAG [AAACATGCTAG_LTGcore_CC_RTGcore_CT] (site AAACATGCTAG) (LTG core: CC, RTG core: CT)
  recombinant barcode read abundance (log10): 0.55

## AAACATGCCTGGGTTCTAACCTGTTGCCTGG [AAACATGCTAG_LTGcore_CC_RTGcore_CC] (site AAACATGCTAG) (LTG core: CC, RTG core: CC)
  recombinant barcode read abundance (log10): 0.107

## AAACATGGGTGGGTTCTAACCTGTTGCCTAG [AAACATGCTAG_LTGcore_GG_RTGcore_CT] (site AAACATGCTAG) (LTG core: GG, RTG core: CT)
  recombinant barcode read abundance (log10): 0.427

## AAACATGGTTGGGTTCTAACCTGTTGCCTAC [AAACATGCTAG_LTGcore_GT_RTGcore_GT] (site AAACATGCTAG) (LTG core: GT, RTG core: GT)
  recombinant barcode read abundance (log10): 0.108

## AAACATGTATGGGTTCTAACCTGTTGCCTAG [AAACATGCTAG_LTGcore_TA_RTGcore_CT] (site AAACATGCTAG) (LTG core: TA, RTG core: CT)
  recombinant barcode read abundance (log10): 0.0615

## AAACATGTCTGGGTTCTAACCTGTTGCCTAG [AAACATGCTAG_LTGcore_TC_RTGcore_CT] (site AAACATGCTAG) (LTG core: TC, RTG core: CT)
  recombinant barcode read abundance (log10): 0.0742

## AAACATGTCTGGGTTCTAACCTGTTGCCTGA [AAACATGCTAG_LTGcore_TC_RTGcore_TC] (site AAACATGCTAG) (LTG core: TC, RTG core: TC)
  recombinant barcode read abundance (log10): 0.0728

## ACGGGACACTGGGTTCTAACCTGTTGCAGAG [ACGGGACCTCT_LTGcore_AC_RTGcore_CT] (site ACGGGACCTCT) (LTG core: AC, RTG core: CT)
  recombinant barcode read abundance (log10): 0.0883

## ACGGGACACTGGGTTCTAACCTGTTGCAGGT [ACGGGACCTCT_LTGcore_AC_RTGcore_AC] (site ACGGGACCTCT) (LTG core: AC, RTG core: AC)
  recombinant barcode read abundance (log10): 0.0869

## ACGGGACCTTGGGTTCTAACCTGTTGCAGAG [ACGGGACCTCT_LTGcore_CT_RTGcore_CT] (site ACGGGACCTCT) (LTG core: CT, RTG core: CT)
  recombinant barcode read abundance (log10): 2.63

## ACGGGACCTTGGGTTCTAACCTGTTGCAGCC [ACGGGACCTCT_LTGcore_CT_RTGcore_GG] (site ACGGGACCTCT) (LTG core: CT, RTG core: GG)
  recombinant barcode read abundance (log10): 1.11

## ACGGGACCTTGGGTTCTAACCTGTTGCAGCG [ACGGGACCTCT_LTGcore_CT_RTGcore_CG] (site ACGGGACCTCT) (LTG core: CT, RTG core: CG)
  recombinant barcode read abundance (log10): 0.0844

## ACGGGACCTTGGGTTCTAACCTGTTGCAGGG [ACGGGACCTCT_LTGcore_CT_RTGcore_CC] (site ACGGGACCTCT) (LTG core: CT, RTG core: CC)
  recombinant barcode read abundance (log10): 0.931

## ACGGGACCTTGGGTTCTAACCTGTTGCAGTA [ACGGGACCTCT_LTGcore_CT_RTGcore_TA] (site ACGGGACCTCT) (LTG core: CT, RTG core: TA)
  recombinant barcode read abundance (log10): 0.818

## ACGGGACCTTGGGTTCTAACCTGTTGCAGTG [ACGGGACCTCT_LTGcore_CT_RTGcore_CA] (site ACGGGACCTCT) (LTG core: CT, RTG core: CA)
  recombinant barcode read abundance (log10): 0.172

## ACGGGACGATGGGTTCTAACCTGTTGCAGTC [ACGGGACCTCT_LTGcore_GA_RTGcore_GA] (site ACGGGACCTCT) (LTG core: GA, RTG core: GA)
  recombinant barcode read abundance (log10): 0.229

## ACGGGACGGTGGGTTCTAACCTGTTGCAGCC [ACGGGACCTCT_LTGcore_GG_RTGcore_GG] (site ACGGGACCTCT) (LTG core: GG, RTG core: GG)
  recombinant barcode read abundance (log10): 0.12
